“And” between values parts separate entries of the source, which are not always exact repeats. Identical values can stand only once.
Key:
[1] = tested on: apparently healthy volunteers; assay: Double-blind placebo-controlled low-dose potassium trial: blood pressure (MAP, SBP, DBP); assay type: in vivo, human; settings: for DBP Week 3 − Week 0 mean difference / MAP Week 3 − Week 0 mean difference / SBP Week 3 − Week 0 mean difference: change Week 0 to 3, n = 30, mean ± SEM; for DBP Week 6 − Week 0 mean difference / MAP Week 6 − Week 0 mean difference / SBP Week 6 − Week 0 mean difference: change Week 0 to 6, n = 30, mean ± SEM
Method: A double-blind, placebo controlled trial on 59 volunteers, randomly assigned to receive 24 mmol/d of slow release potassium chloride (n=30) or a placebo (n=29) was conducted. Measures of BP, anthropometric characteristics and urine analysis for electrolytes were recorded during a one-week baseline period. Supplementation was for six weeks during which BP and changes in weight were assessed and a second 24-hour urine collection made. The primary outcome was the change in mean arterial pressure (MAP). Systolic (SBP) and diastolic (DBP) blood pressure were secondary outcomes.
The study took the form of a randomized double-blind, placebo-controlled trial with the aim of testing the effect of potassium supplementation on BP. […] The study consisted of a baseline period of one week during which blood pressure and body weight were measured at the beginning and end, and a 24-hour urine sample was collected to estimate electrolyte intake. During a six weeks intervention phase, BP and body weight were measured at three-week intervals, and a second 24-hour urine sample was collected during the final week. Potassium chloride was administered as one slow release tablet containing 8 mmol of potassium chloride (Slow-K Tablets 600 mg kindly supplied by Alliance Pharmaceuticals Ltd, Avonbridge House, Chippenham, Wiltshire SN15 2BB, UK) three times a day with meals. The placebo contained sorbitol and fructose.
Each BP measurement was performed following current recommendations (Beevers et al., ABC of hypertension, 4th Ed., London, BMJ Publishing Group, 2000). BP was assessed at the same time of day (within 30 minutes) for every appointment to avoid the influence of circadian variations in BP (Id.), at approximately the same heart rate, and by the same observer using the same instruments throughout the study for each measurement. The subjects were instructed not to smoke, eat or drink during the 30 minutes before each appointment They were also given verbal and written notice to avoid exercising 30 minutes before the appointment, to come to the appointment with an empty bladder and to maintain strictly their usual habits on the day of the appointment (coffee, tea, meals consumed at the same time of the day). BP measurements were performed after the subjects had rested quietly for at least five minutes in the seated position. Two different cuffs (35 cm and 42 cm) were used depending on the arm circumference. At each visit at least three readings for systolic (SBP) and diastolic (DBP) BP and heart rate were taken at two-minute intervals in the left arm using a semi-automated device employing the oscillometric method (Omron M5-I, Omron Healthcare Europe B.V., Hoofddorp, The Netherlands). The first readings of each assessment were ignored to avoid results affected by the defense reaction (Beevers et al., ABC of hypertension, 4th Ed., London, BMJ Publishing Group, 2000) and the last two readings were averaged and recorded. The readings were thereafter confirmed after a two-minute interval with a Hawksley random zero sphygmomanometer (Hawksley and Sons, Lancing, Sussex, UK) because automatic devices may be unsuitable for some individuals for which there is no obvious reason (Id.).
SBP was measured as the point of appearance of the Korotkoff sounds (Phase I) and DBP was measured as the point of complete disappearance of the Korotkoff sounds (Phase V) according to the guidelines given by the British Hypertension Society (Id). All recordings from the semi-automated device agreed well with the random zero sphygmomanometer. Subjects with either SBP≧140 mm Hg or DBP level≧90 mm Hg were considered to be hypertensive.
Mean Arterial Pressure (MAP) was computed as MAP=(2 DBP+SBP)/3 (Vander et al., Human Physiology, The Mechanism of Body Function, 8th Ed., McGraw-Hill, New York, 2000, pp. 407-16 and 626-34, and Wilson et al., Hypertension, 1999, 34, 181-6). […]

[2] = tested on: apparently healthy volunteers; assay: Low-dose potassium trial: compliance and side effects; assay type: in vivo, human; settings: one person receiving potassium
Method: The patients and the investigator were unaware of the type of supplement being given, other than that it was a nutrient. The placebo and potassium chloride pills were provided in identical containers. The adherence of the volunteers to the treatment was assessed at each visit by questioning, and by counting the pills returned.
The baseline blood pressure used for the statistical analysis was the average of the measurements taken during the first week period. For Interval level variables (e.g. BP), differences between groups were tested using the Two-Sample t test while differences within each group were tested with the Paired t test. For Ordinal level variables (e.g. compliance) these tests were performed using the Mann-Whitney Test and the Wilcoxon Signed Rank Test for comparisons between and within the two groups respectively. The Chi-Squared Test was used to assess the significance of differences between the groups for Nominal level variables (e.g. gender).

hypertensive patients = settings: 18 hypertensive patients, daily supplement of 48 mmol; cited from earlier work
[3] = 24 mmol/d slow release potassium chloride, n = 30, mean ± SEM
[4] = Week 0 to 6, listed as potassium
[5] = after six weeks of supplementation, versus placebo
[6] = within potassium group, listed as potassium
[7] = within potassium group, change Week 3 to 6, n = 30, mean ± SEM

With `[Cl-].[K+]` [Potassium, potassium chloride] the “DBP Week 3” value [1, 3] was 72.95 ± 2.08 mm Hg, the “DBP Week 6” value [1, 3] was 71.47 ± 1.90 mm Hg and the “MAP Week 3” value [1, 3] was 87.67 ± 2.20 mm Hg. The “MAP Week 6” value [1, 3] was 84.97 ± 2.06 mm Hg, the “SBP Week 3” value [1, 3] was 117.17 ± 2.71 mm Hg and the “SBP Week 6” value [1, 3] was 111.93 ± 2.52 mm Hg. For the same compound, the “DBP Potassium − placebo Mean Difference (95% CI)” value ([1]; Week 0 to 3) was −4.11 (−6.09, −2.13)^4 mm Hg, the “MAP Potassium − placebo Mean Difference (95% CI)” value ([1]; Week 0 to 3) was −3.34 (−5.22, −1.47)^3 mm Hg and the “SBP Potassium − placebo Mean Difference (95% CI)” value ([1]; Week 0 to 3) was −1.28 (−4.21, 1.65) mm Hg. For the same compound, the “DBP Potassium − placebo Mean Difference (95% CI)” value ([1]; Week 0 to 6) was −6.46 (−8.74, −4.19)^4 mm Hg, the “MAP Potassium − placebo Mean Difference (95% CI)” value ([1]; Week 0 to 6) was −7.01 (−9.12, −4.89)^4 mm Hg and the “SBP Potassium − placebo Mean Difference (95% CI)” value ([1]; Week 0 to 6) was −7.60 (−10.46, −4.73)^4 mm Hg. For the same compound, the “DBP Potassium − placebo Mean Difference (95% CI)” value [1, 4] was “marked and significant decrease”, the “MAP Potassium − placebo Mean Difference (95% CI)” value [1, 4] was “marked and significant decrease” and the “SBP Potassium − placebo Mean Difference (95% CI)” value [1, 4] was “marked and significant decrease”. The “DBP Potassium − placebo Mean Difference (95% CI)” value ([1]; Week 3 to 6) was −2.35 (−4.70, −0.00)^5 mm Hg, the “MAP Potassium − placebo Mean Difference (95% CI)” value ([1]; Week 3 to 6) was −3.66 (−5.84, −1.49)^3 mm Hg and the “SBP Potassium − placebo Mean Difference (95% CI)” value ([1]; Week 3 to 6) was −6.32 (−8.84, −3.79)^4 mm Hg. The “reduction in DBP” value [1, 5] was 6.46 mm Hg, the “reduction in MAP” value [1, 5] was 7.01 mm Hg and the “reduction in SBP” value [1, 5] was 7.60 mm Hg. For the same compound, the “DBP Week 3 − Week 0 mean difference” value ([1]; within potassium group) was −2.53 ± 0.73^6 mm Hg and −2.53 ± 0.73 mm Hg, the “MAP Week 3 − Week 0 mean difference” value ([1]; within potassium group) was −2.21 ± 0.72^3 mm Hg and −2.21 ± 0.72^2 mm Hg and the “SBP Week 3 − Week 0 mean difference” value ([1]; within potassium group) was −0.98 ± 1.20 mm Hg. The “DBP Week 3 − Week 0 mean difference” value [1, 6] was “significant decrease”, the “MAP Week 3 − Week 0 mean difference” value [1, 6] was “significant decrease” and the “SBP Week 3 − Week 0 mean difference” value [1, 6] was “not significantly reduced”. The “DBP Week 6 − Week 0 mean difference” value ([1]; within potassium group) was −4.02 ± 0.87^5 mm Hg and −4.02 ± 0.87 mm Hg, the “MAP Week 6 − Week 0 mean difference” value ([1]; within potassium group) was −4.91 ± 0.80^5 mm Hg and −4.91 ± 0.79 mm Hg and the “SBP Week 6 − Week 0 mean difference” value ([1]; within potassium group) was −6.22 ± 1.07^5 mm Hg and −6.22 ± 1.10 mm Hg. For the same compound, the “DBP Week 6 − Week 0 mean difference” value [1, 6] was “decreased significantly”, the “MAP Week 6 − Week 0 mean difference” value [1, 6] was “decreased significantly” and the “SBP Week 6 − Week 0 mean difference” value [1, 6] was “decreased significantly”. For the same compound, the “DBP Week 6 − Week 3 mean difference” value [1, 7] was −1.48 ± 0.98 mm Hg and −1.48 ± 0.97 mm Hg, the “MAP Week 6 − Week 3 mean difference” value [1, 7] was −2.70 ± 0.91^4 mm Hg and −2.70 ± 0.91 mm Hg and the “SBP Week 6 − Week 3 mean difference” value [1, 7] was −5.23 ± 1.03^5 mm Hg and −5.23 ± 1.00 mm Hg. The “SBP Week 6 − Week 3 mean difference” value ([1]; within potassium group, change Week 3 to 6, n = 30, mean ± SEM, listed as potassium) was “decreased significantly”, the side effects reported [2] was “increase in appetite” and the “effect on BP” value (hypertensive patients) was “lower BP”.
